Source: US6706663B2, “Herbicidal 3-heterocyclic substituted benzisothiazole and benzisoxazole compounds” (Wyeth, priority 2000, dated 2004)

What was measured:
[1] = test system: ECHCG (Echinochloa crus-galli); assay: Postemergence herbicidal evaluation; assay type: in vivo, (L.) Beau
Method in brief: (§1)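 Seedlings grown for about two weeks were sprayed postemergence and then kept under standard greenhouse care. Injury was rated visually 4–5 weeks after treatment on a 0–9 scale against untreated controls, and ratings from repeat tests were averaged.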

SETVI (Setaria viridis) = assay: Postemergence herbicidal evaluation; assay type: in vivo, (L.) Beau
Method in brief: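 First, seedlings are raised in flats for about two weeks. Next, compound dispersed in 50/50 acetone/water with 0.5% TWEEN 20 is sprayed at 40 psi to deliver about 0.0040–1.000 kg/ha. Plants are then maintained in the greenhouse and rated 0-9 after four to five weeks.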

[2] = test system: TRZAWR (Wheat, Winter, cv Riband); assay: Postemergence herbicidal evaluation; assay type: in vivo, Triticum aestivum
Method in brief: as §1

[3] = test system: ABUTH (Abutilon theophrasti); assay: Preemergence herbicidal evaluation; assay type: in vivo, Medic.; conditions: preemergence, rated 4-5 weeks after treatment
[4] = test system: AMBEL (Ambrosia artemisifolia); assay: Preemergence herbicidal evaluation; assay type: in vivo, L.; conditions: preemergence, rated 4-5 weeks after treatment
Method in brief: (§2)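 Seeds mixed with potting soil were planted atop about one inch of soil, then sprayed with test compound in aqueous acetone. Cups were kept in the greenhouse and rated visually 4–5 weeks after treatment on a 0–9 scale against untreated control.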

[5] = test system: CASOB (Cassia obtusifolia); assay: Preemergence herbicidal evaluation; assay type: in vivo, L.; conditions: preemergence, rated 4-5 weeks after treatment
Method in brief: as §2

[6] = test system: CHEAL (Chenopodium album); assay: Preemergence herbicidal evaluation; assay type: in vivo, L.; conditions: preemergence, rated 4-5 weeks after treatment
Method in brief: as §2

[7] = test system: IPOHE (Ipomoea hederacea); assay: Preemergence herbicidal evaluation; assay type: in vivo, (L.) Jacq.; conditions: preemergence, rated 4-5 weeks after treatment
[8] = test system: GLXMAW (Soybean, Williams); assay: Preemergence herbicidal evaluation; assay type: in vivo, Glycine max, (L.) Merr. cv Williams; conditions: preemergence, rated 4-5 weeks after treatment
ZEAMX (Corn, Field) = assay: Preemergence herbicidal evaluation; assay type: in vivo, Zea mays, L.; conditions: preemergence, rated 4-5 weeks after treatment
[9] = test system: ECHORC (Echinochloa oryzoides); assay: Flooded paddy, preemergence weed control; assay type: in vivo, Echinochloa oryzoides (Ard.) Fritsch.; conditions: rated 3-4 weeks after treatment, 0-9 rating scale
Method in brief: (§3)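 Greenhouse paddy test, preemergence. Seeds planted in the top 0.5 cm of silt loam soil, which remained flooded at 1.5–3 cm depth. Scored 0-9 by visual comparison with control.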

CYPIR (Cyperus iria) = assay: Flooded paddy, preemergence weed control; assay type: in vivo; conditions: rated 3-4 weeks after treatment, 0-9 rating scale
Method in brief: as §3

[10] = test system: CYPSE (Cyperus serotinus); assay: Flooded paddy, preemergence weed control; assay type: in vivo, Rottb.; conditions: rated 3-4 weeks after treatment, 0-9 rating scale
Method in brief: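 Seeds or propagules were planted 0.5 cm deep in silt loam and flooded to 1.5–3 cm. Compounds in 50/50 v/v aqueous/acetone were pipetted into the flood water at about 0.0080 to 0.1250 kg/ha. After 3–4 weeks in the greenhouse, effect was rated visually on a 0–9 scale versus untreated control.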

[11] = test system: MOOVA (Monochoria vaginalis); assay: Flooded paddy, preemergence weed control; assay type: in vivo, Presl.; conditions: rated 3-4 weeks after treatment, 0-9 rating scale
Method in brief: as §3

[12] = test system: SAGPY (Sagittaria pygmaea); assay: Flooded paddy, preemergence weed control; assay type: in vivo, L.; conditions: rated 3-4 weeks after treatment, 0-9 rating scale
Method in brief: as §3

ORYSAT (Rice, Tebonnet) = assay: Flooded paddy, post-transplant rice tolerance; assay type: in vivo, Oryza sativa, (L.) Tebonnet; conditions: flooded paddy, post-transplant rice, rated 3-4 weeks after treatment, 0-9 rating scale
Method in brief: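 Scores (0-9) reflect visual injury relative to untreated plants in flooded silt loam. Each pot held two transplanted ten-day-old seedlings under 1.5 to 3 cm standing water in the greenhouse.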

SMILES: Cn1c(C(F)(F)F)cc(=O)n(-c2ccc3snc(-c4ccsc4)c3c2)c1=O [Compound 1, 1-methyl-3-[3-(3-thienyl)-1,2-benzisothiazol-5-yl]-6-(trifluoromethyl)uracil]
- Postemergence herbicidal rating, ECHCG ([1]; rate 0.0320 kg/ha): 2.0
- Postemergence herbicidal rating, ECHCG ([1]; rate 0.0620 kg/ha): 2.5
- Postemergence herbicidal rating, ECHCG ([1]; rate 0.1250 kg/ha): 4.0
- Postemergence herbicidal rating, SETVI (SETVI (Setaria viridis); rate 0.0320 kg/ha): 7.0
- Postemergence herbicidal rating, SETVI (SETVI (Setaria viridis); rate 0.0620 kg/ha): 6.5
- Postemergence herbicidal rating, SETVI (SETVI (Setaria viridis); rate 0.1250 kg/ha): 8.0
- Postemergence herbicidal rating, TRZAWR ([2]; rate 0.0320 kg/ha): 3.5
- Postemergence herbicidal rating, TRZAWR ([2]; rate 0.0620 kg/ha): 3.5
- Postemergence herbicidal rating, TRZAWR ([2]; rate 0.1250 kg/ha): 4.3
- ABUTH preemergence herbicidal rating ([3]; Rate 0.0620 kg/ha): 9.0
- ABUTH preemergence herbicidal rating ([3]; Rate 0.1250 kg/ha): 9.0
- ABUTH preemergence herbicidal rating ([3]; Rate 0.2500 kg/ha): 9.0
- AMBEL preemergence herbicidal rating ([4]; Rate 0.0620 kg/ha): 7.3
- AMBEL preemergence herbicidal rating ([4]; Rate 0.1250 kg/ha): 9.0
- AMBEL preemergence herbicidal rating ([4]; Rate 0.2500 kg/ha): 9.0
- CASOB preemergence herbicidal rating ([5]; Rate 0.0620 kg/ha): 7.3
- CASOB preemergence herbicidal rating ([5]; Rate 0.1250 kg/ha): 8.3
- CASOB preemergence herbicidal rating ([5]; Rate 0.2500 kg/ha): 8.3
- CHEAL preemergence herbicidal rating ([6]; Rate 0.0620 kg/ha): 9.0
- CHEAL preemergence herbicidal rating ([6]; Rate 0.1250 kg/ha): 9.0
- CHEAL preemergence herbicidal rating ([6]; Rate 0.2500 kg/ha): 9.0
- IPOHE preemergence herbicidal rating ([7]; Rate 0.0620 kg/ha): 8.0
- IPOHE preemergence herbicidal rating ([7]; Rate 0.1250 kg/ha): 9.0
- IPOHE preemergence herbicidal rating ([7]; Rate 0.2500 kg/ha): 9.0
- GLXMAW preemergence herbicidal rating ([8]; Rate 0.0620 kg/ha): 7.0
- GLXMAW preemergence herbicidal rating ([8]; Rate 0.1250 kg/ha): 9.0
- GLXMAW preemergence herbicidal rating ([8]; Rate 0.2500 kg/ha): 9.0
- ZEAMX preemergence herbicidal rating (ZEAMX (Corn, Field); Rate 0.0620 kg/ha): 6.0
- ZEAMX preemergence herbicidal rating (ZEAMX (Corn, Field); Rate 0.1250 kg/ha): 6.7
- ZEAMX preemergence herbicidal rating (ZEAMX (Corn, Field); Rate 0.2500 kg/ha): 7.0
- herbicidal rating, ECHORC ([9]; rate 0.0080 kg/ha): 6.0
- herbicidal rating, ECHORC ([9]; rate 0.0320 kg/ha): 9.0
- herbicidal rating, ECHORC ([9]; rate 0.1250 kg/ha): 9.0
- herbicidal rating, CYPIR (CYPIR (Cyperus iria); rate 0.0080 kg/ha): 9.0
- herbicidal rating, CYPIR (CYPIR (Cyperus iria); rate 0.0320 kg/ha): 9.0
- herbicidal rating, CYPIR (CYPIR (Cyperus iria); rate 0.1250 kg/ha): 9.0
- herbicidal rating, CYPSE ([10]; rate 0.0320 kg/ha): 3.5
- herbicidal rating, CYPSE ([10]; rate 0.1250 kg/ha): 9.0
- herbicidal rating, MOOVA ([11]; rate 0.0080 kg/ha): 9.0
- herbicidal rating, MOOVA ([11]; rate 0.0320 kg/ha): 9.0
- herbicidal rating, MOOVA ([11]; rate 0.1250 kg/ha): 9.0
- herbicidal rating, SAGPY ([12]; rate 0.0080 kg/ha): 4.0
- herbicidal rating, SAGPY ([12]; rate 0.0320 kg/ha): 4.0
- herbicidal rating, SAGPY ([12]; rate 0.1250 kg/ha): 5.5
- herbicidal rating, ORYSAT (rice tolerance) (ORYSAT (Rice, Tebonnet); rate 0.0080 kg/ha): 4.0
- herbicidal rating, ORYSAT (rice tolerance) (ORYSAT (Rice, Tebonnet); rate 0.0320 kg/ha): 5.5
- herbicidal rating, ORYSAT (rice tolerance) (ORYSAT (Rice, Tebonnet); rate 0.1250 kg/ha): 7.0
